Reference: patent US20180325115A1, “PLANT GROWTH REGULATOR COMPOSTION HAVING SYNERGISTIC EFFECT” (JIANGSU HUIFENG BIO AGRICULTURE CO., LTD., priority 2015, published 2018)

Tests used:
Assay type in all cases: in vivo
sorghum = experiment: Comprehensive test on growth regulation for sorghum by thidiazuron combined with brassinolide (plant height, stem diameter, 1000-grain weight, yield); conditions: mixtures 4.3 mg/kg, thidiazuron 4 mg/kg
Procedure: (§1) 1. Comprehensive Test on Growth Regulation for Sorghum by Thidiazuron Combined with Brassinolide
(§2) The thidiazuron and brassinolide were diluted with acetone to give a series of concentrations, and the stems and leaves of crops were sprayed to determine the effect of each concentration on crop growth in the field, so as to make a comprehensive evaluation with respect to the plant height and diameter, the root length, the disease resistance, the quality of fruits, and the yield.
Plant height control rate=(Plant height in water control group-Plant height in treatment group)/Plant height in water control group*100%
Stem diameter increase rate=(Stem diameter in water control group-Stem diameter in treatment group)/Stem diameter in water control group*100%
Increase rate in 1000-grain weight=(1000-grain weight in water control group−1000-grain weight in treatment group)/1000-grain weight in water control group*100%
Increase rate in yield per mu=(Yield per mu in water control group−Yield per mu in treatment group)/Yield per mu in water control group*100%

leaf blight of sorghum = experiment: Disease index and prevention effect on leaf blight in the sorghum comprehensive test; conditions: early tasselling stage, mixtures 4.3 mg/kg, thidiazuron 4 mg/kg, brassinolide 0.3 mg/kg
Procedure: as §1, §2
Prevention effect=(Disease index in water control group-Disease index in treatment group)/Disease index in water control group*100%

oat = experiment: Comprehensive field test on growth regulation and yield increase for oat by thidiazuron combined with brassinolide; conditions: Examples 5.4 mg/kg, thidiazuron 5.0 mg/kg, brassinolide 0.4 mg/kg
Text: (§3) 1. Comprehensive Test on Growth Regulation, Disease Resistance, and Yield Increase for Oat by Thidiazuron Combined with Brassinolide in Field
(§4) Application time: filling stage of oat, because diseases such as powdery mildew easily take place during the earing period.
(§5) Time of application: 1. Formulation examples of the present invention were sprayed, and the results were an average of three replicates.

powdery mildew of oat = experiment: Disease index and prevention effect on powdery mildew in the oat field test; conditions: Examples 5.4 mg/kg, thidiazuron 5.0 mg/kg, brassinolide 0.4 mg/kg
Text: as §3, §4, §5

[1] = early tasselling stage, vs water control, brassinolide 0.3 mg/kg
[2] = maturity and harvest period, brassinolide 0.3 mg/kg
[3] = maturity and harvest period, vs water control, brassinolide 0.3 mg/kg

O=C(Nc1ccccc1)Nc1cnns1 [Thidiazuron, thidiazuron]
Plant height (sorghum; early tasselling stage, 2 sprays on stems and leaves, 8 days apart, brassinolide 0.3 mg/kg (active ingredient)): 120.4 cm | Stem diameter (sorghum; early tasselling stage, brassinolide 0.3 mg/kg): 2.56 cm | Control rate (plant height) (sorghum; [1]): 3.4% | Increase rate (stem diameter) (sorghum; [1]): 2.4% | Weight of 1000 grains (sorghum; [2]): 22.1 | Yield (sorghum; [2]): 555.8 kg/667M^2 | Increase rate (weight of 1000 grains) (sorghum; [3]): 3.6% | Increase rate (yield per mu) (sorghum; [3]): 3.5% | Disease index of leaf blight (leaf blight of sorghum): 10.4 | Prevention effect (leaf blight) (leaf blight of sorghum; vs water control): 24.1% | Plant height (oat; 1 spray at filling stage, average of three replicates): 120.1 cm | Stem diameter (oat): 2.38 mm | Weight of 1000 grains (oat): 35.73 | Yield (oat): 627.3 667M2 | Control rate (plant height) (oat; vs water control): 4.5% | Increase rate (stem diameter) (oat; vs water control): 3.2% | Increase rate (weight of 1000 grains) (oat; vs water control): 4.2% | Increase rate (yield) (oat; vs water control): 4.3% | Disease index of powdery mildew (powdery mildew of oat): 13.16 | Prevention effect (powdery mildew) (powdery mildew of oat; vs water control): 13.3%
